In US10632127B2, “Targeted notch pathway inhibitors” (Hoffmann-La Roche Inc., priority 2015, dated 2020):

Test system: EC219 cells
Experiment: Extracellular release of the γ-secretase inhibitor from prodrugs by EC219 endothelial cells
Assay type: in vitro ADME, rat
Conditions: HEK293, 215/F2, HK2 and EC219 cells, 20 μM in PBS, 19 h
Protocol: FIG. 2A. Extracellular release of amine-SecrI (11a) metabolites for α-Glu- and γ-Glu-secretase inhibitor prodrugs. The prodrugs were added to the cells for 19 h, then the supernatants were harvested and analyzed for SecrI (8), amine-SecrI (11a), the prodrugs 13a, 13b, 15a, 15b and (for 13a, 15a) also the correponding deacetylated metabolites.
Cpd added: 20 μM in PBS, 19 h incubation. SecrI (8) is stable when added to cells for 19 h; free SecrI (8) was never detected from any prodrug.
The preparation and characterization of rat brain-derived EC219 endothelial cells have been described in Juillerat-Jeanneret, L. et al. In Vitro Cell. Dev. Biol. 1992, 28A, 537-543. These cells express high levels of APA and γ-GT activities and can be used for determining kinetics in living cells, and were chosen as APA- and γ-GT-positive representative cell models. EC219 cells were grown in DMEM medium containing 1 g/l glucose, 10% heat-inactivated fetal calf serum (FCS, EuroClone, UK) supplemented with 100 U/mL penicillin and 100 μg/mL streptomycin (P/S) on uncoated cell culture plastic ware. The HEK293 and HK2 human kidney cells are available from the ATCC (American Tissue Culture Collection, Manassas, Va., USA). HEK293 cells were grown on uncoated cell culture plastic ware in Iscove modified Dulbecco medium (IMDM, Life Technologies) containing 10% FCS and P/S. HK2 cells were grown on uncoated cell culture plastic ware in DMEM/F-12 GlutaMAX medium (Gibco) containing 5% FCS, P/S, 1% ITS (1.0 mg/ml bovine insulin, 0.55 mg/ml human transferrin and 0.5 μg/ml sodium selenite, Sigma-Aldrich) and 5 ng/ml hydrocortisone. […] Then 75 μl of supernatant from each well was removed and the luciferase activity was determined by adding 25 μl of Steady-Glo luciferase assay reagent (Promega).
A first screen of the different γ-secretase prodrugs was performed in vitro to determine the cleavage rate of each compound and ex-vivo in mouse kidney tissues. Extracellular release of the γ-secretase inhibitor from prodrugs by human kidney cells (HEK293, HEK293-derived Notch-reporter 215/F2 cells28,39 and HK2 cells) as well as the rat brain-derived EC219 endothelial cells which express very high levels of APA and γ-GT activities were evaluated for liberating active inhibitors SecrI (8) or amine-SecrI (11a) (FIG. 2A).
All samples were analyzed using protein precipitation followed by LC-MS/MS analysis. […] One μL of the supernatant was analyzed by LC/MS. […]

In the case of `C[C@H]1Oc2ccc(F)cc2N(CCO)C(=O)[C@H]1NC(=O)[C@@](C)(O)C(=O)NCC(F)(F)C(F)(F)F` [Compound 8, N-[(6R,7S)-2-Fluoro-9-(2-hydroxy-ethyl)-6-methyl-8-oxo-6,7,8,9-tetrahydro-5-oxa-9-aza-benzocyclohepten-7-yl]-2-(S)-hydroxy-2-methyl-N′-(2,2,3,3,3-pentafluoro-propyl)-malonamide], the “stability when added to cells” value is reported as “stable”.
`CC(=O)N[C@@H](CCC(=O)NCCNC(=O)OCCN1C(=O)[C@@H](NC(=O)[C@@](C)(O)C(=O)NCC(F)(F)C(F)(F)F)[C@@H](C)Oc2ccc(F)cc21)C(=O)O` [Compound 13a, (S)-2-acetamido-5-(2-((2-((2R,3S)-7-fluoro-3-((S)-2-hydroxy-2-methyl-3-oxo-3-(2,2,3,3,3-pentafluoropropylamino)propanamido)-2-methyl-4-oxo-3,4-dihydrobenzo[b][1,4]oxazepin-5(2H)-yl)ethoxy)carbonylamino)ethylamino)-5-oxopentanoic acid] was tested, and the “hydrolysis by γ-GT” value was “not hydrolyzed by γ-GT”.
In the case of `CC(=O)N[C@@H](CCC(=O)O)C(=O)NCCNC(=O)OCCN1C(=O)[C@@H](NC(=O)[C@@](C)(O)C(=O)NCC(F)(F)C(F)(F)F)[C@@H](C)Oc2ccc(F)cc21` [Compound 15a, (S)-4-acetamido-5-(2-((2-((2R,3S)-7-fluoro-3-((S)-2-hydroxy-2-methyl-3-oxo-3-(2,2,3,3,3-pentafluoropropylamino)propanamido)-2-methyl-4-oxo-3,4-dihydrobenzo[b][1,4]oxazepin-5(2H)-yl)ethoxy)carbonylamino)ethylamino)-5-oxopentanoic acid], the “substrate for APA” value is reported as “not a substrate for this enzyme”.
